# Source: patent publication US20120323016A1, “METHOD OF PREPARING DERIVATIVES/OLIGOMERS OF EPICATECHIN AND APPLICATIONS THEREOF” (NATIONAL UNIVERSITY OF SINGAPORE, priority 2009, published 2012)
# Test: Oxygen radical absorbance capacity (ORAC) assay
# Protocol: Peroxyl radical scavenging capacity of the EC2S2 was determined using oxygen radical absorbance capacity (ORAC) assay (Huang, D.; Ou, B.; Hampsch-Woodill, M.; Flanagan, J. A.; Prior, R. L. High-throughput assay of oxygen radical absorbance capacity (ORAC) using a multichannel liquid handling system coupled with a microplate fluorescence reader in 96-well format. Journal of Agricultural and Food Chemistry (2002), 50(16), 4437-4444.). […] The net area under the curve has excellent linear relationship with the concentration of EC2S2. The ORAC value calculated from the individual concentration is 10.79±0.58 μmol TE/μmol sample. This is the highest ORAC value reported for pure antioxidant compounds.
compound,measurement,setting,value
"Oc1cc(O)c2c(c1)O[C@H](c1ccc(O)c(O)c1)[C@H](O)[C@H]2SCCS[C@H]1c2c(O)cc(O)cc2O[C@H](c2ccc(O)c(O)c2)[C@@H]1O [EC2S2, (2R,2′R,3S,3′S,4S,4′S)-4,4′-(ethane-1,2-diylbis(sulfanediyl))bis(2-(3,4-dihydroxyphenyl)chroman-3,5,7-triol)]",antioxidant activity relative to EC,"EC2S2 synthesized from Pine Bark OPCs, compared with EC",two times higher than EC
same,ORAC value (peroxyl radical scavenging capacity),"calculated from the individual concentration, Trolox standard",10.79±0.58 μmol TE/μmol sample
